Measurements reported in US20240083933A1, “DISACCHARIDES FOR TREATING BONE DISEASES” (UNIVERSITE DE PICARDIE JULES VERNE, priority 2020, published 2024).
Where “and” joins values, the source holds several entries; their conditions need not be identical. Identical values can stand only once.

What was measured:
[1] = system: MC3T3-E1 cells; test: Alkaline phosphatase (ALP) enzymatic activity assay, MC3T3-E1; format: cell-based, mouse; conditions: MC3T3-E1, 13 days post-treatment
Text: ALP is an enzyme synthesized by osteoblasts. It hydrolyses phosphoric esters which inhibit the mineralization by releasing a hydroxyl group and a phosphate. The osteoblasts produce matrix vesicles, reservoirs of alkaline phosphatases and ions, which, when released into the extracellular medium, would initiate the mineralization of the osteoid tissue by promoting the local concentrations of calcium ions and phosphates. Cells have been seeded in 6-well plates at 63700 cells/well for MC3T3-E1 and at 182000 cells/well for HOb.
After the PBS rinses, 50 μl of ALP Assay Buffer were added to the wells, the bottom of the wells was scraped and then the 50 μl were taken. A centrifugation for 3 minutes at 13000 G was carried out to remove the insoluble material. In a 96-well plate, 10 μl of each sample to be tested are placed with 70 μl of the ALP Assay buffer and 50 μl of the 5 mM pNPP solution. In parallel, the calibration range was prepared by placing, in the same 96-well plate. The reaction was incubated for 60 min at 25° C., shielded from light. The reaction was stopped by adding 20 μl of the Stop Solution. The optical density was measured at 405 nm.
After the ALP enzymatic activity assay, a protein assay was performed in order to normalize the results of the ALP assay depending on the number of proteins. […] The optical density was measured at 565 nm to determine the amount of proteins.

[2] = system: smooth muscle cells; test: Calcium production by smooth muscle cells; format: cell-based; conditions: non-calcifying control condition; DP2 5-50 μM (FIG. 5)
Text: FIG. […]
This therefore reinforces the hypothesis that DP2 will not induce any calcification on cells other than the osteoblastic cells.

[3] = system: HOb cells; test: Cytotoxicity, WST-1 test; format: cell-based, human; conditions: 30 μM, culture or mineralizing medium, D2, D4, D7, D14
Description: The toxicity of DP2 has also been studied by another cell viability test: WST-1 (a tetrazolium salt). The HOb cells were seeded in 48-well plates (10,000 cells per well), two days later, the cells were treated with DP2 30 μM and the WST-1 test was carried out on D2, D4, D7 and D14 post-treatment.
At the end of the treatment, 100 μl of the diluted WST-1 solution (Roche Diagnostics) was added to each well and the plate is incubated at 37° C. with 5% CO2 for 1 h. The cell proliferation induces an increase in the activity of mitochondrial dehydrogenases, which cleaves the tetrazolium salt into formazan. The amount of formazan dye was quantified by measuring the absorbance of dye at 450 nm (Envision, PerkinElmer). The results are expressed as percentage of viability in comparison to the untreated control condition.
Before determining whether our molecule alters the survival of osteoblastic cells, its cytotoxicity was tested on the HOb cells by the MTT and WST-1 tests. The cells were treated with DP2 at 30 μM with the culture medium (Ctrl) or the mineralizing medium (Min) for 2, 4, 7 and 14 days (D).

[4] = system: HOb cells; test: Calcium assay (pro-calcifying activity, mineralization) on human primary osteoblastic cells; format: cell-based; conditions: for percentage of mineralization of the HOb cells / increase in calcification relative to the mineralizing condition: 14 days; for percentage of mineralization of the HOb cells: mineralizing conditions; for increase in calcification relative to the mineralizing condition: HOb
Description: For all experiments, a mouse pre-osteoblastic cell line (MC3T3-E1, ATCC) and human primary osteoblastic cells (HOb, Promocell) were used. The mouse pre-osteoblastic cells were cultured in 75 cm^2 flasks, containing 15 mL of α-MEM medium (M4526, SIGMA) and 10% fetal calf serum (FCS), containing 1% Penicillin/Streptomycin antibiotics and 1% glutamine. Similarly, human HOb cells were cultured in 75 cm 2 flasks containing 15 mL of proliferation medium (Human Osteoblast Proliferation Medium, PromoCell). The cells are maintained in the oven at 37° C., with 5% CO2 and 90% humidity. The medium was changed every three days.
MC3T3-E1 cells were seeded in 6-well plates at 63,700 cells/well to be treated in order to extract RNA or for alkaline phosphatase enzymatic activity assay and in 48-well plates for the calcium assay at 5250 cells/well. The HOb cells were seeded at 182,000 cells/well in 6-well plates for the extraction of RNA or for the alkaline phosphatase enzymatic activity assay; at 15,000 cells/well in 48-well plates for the calcium assay; at 10,000 cells/well in 48-well plates for the MTT test or the WST-1 test and at 100,000 cells/well in 6-well plates for the protein extraction or for the fluorescence.
In order to induce the mineralization, the MC3T3-E1 cells were treated with α-MEM medium containing 5% FCS to which 10 mM of β-glycerophosphate and 50 μg/mL of ascorbic acid are added. The HOb cells were treated with the “Osteoblast mineralization medium” (Promocell). […] After filtration, the cells were treated with the respective media (500 μL per well of the 48-well plate and 2 mL per well of the 6-well plate).
The calcification has also been studied on human osteoblastic cells (Hob, PromoCell, Heidelberg, Germany). They are isolated from femoral trabecular bone tissues.

`CCCO[C@H]1OC(CO)[C@@H](O[C@@H]2OC(CO)[C@@H](O)C(O)C2NC(C)=O)C(O)C1OC(C)=O` (stereo partly drawn) [DP2, n-propyl, 2-O-acetyl-α-D-Glucopyranoside, 4-O-(2-acetamido-2-deoxy-β-D-glucopyranosyl)] was tested, and the “ALP enzymatic activity relative to the mineralized medium alone (100%)” value ([1]; 15 μM) was 118.907±10.466%, the “ALP enzymatic activity relative to the mineralized medium alone (100%)” value ([1]; printed 15 μM (second mention)) was 148.833±15.761% and the “pro-calcifying action on the smooth muscle cells” value [2] was “no pro-calcifying action”. For the same molecule, the “cell viability, WST-1 test” value [3] was “no significant difference”, the “percentage of mineralization of the HOb cells” value ([4]; 30 μM, listed as DP2R0) was 181.573±9.155% and the “percentage of mineralization of the HOb cells” value ([4]; 30 μM, listed as DP2R2) was 137.012±52.452% and 204.472% and 159.03±18.719%. The “increase in calcification relative to the mineralizing condition” value ([4]; 15 μM) was 26±10%, the “increase in calcification relative to the mineralizing condition” value ([4]; 30 μM) was 40±15% and the “increase in calcification relative to the mineralizing condition” value ([4]; 50 μM) was 8±17%. For the same molecule, the “mineralization of the HOb cells relative to the mineralizing medium alone” value ([4]; lower concentrations 5, 7.5 and 10 μM (FIG. 4)) was “decrease in mineralization”.
